Reference: PubChem BioAssay AID1996
In brackets after ≈: the same amount, converted by molar mass.

conditions: buffer; pH 7.4; 200.0 µM

Row | SMILES | solubility kinetic
1 | CCOc1ncccc1C(=O)Nc1ccc(S(=O)(=O)Nc2cc(C)nc(C)n2)cc1 | > 64.1 µg/mL
2 | COc1cc([N+](=O)[O-])ccc1NC(=S)N1CCN(c2ccccn2)CC1 | 12.2 µg/mL (≈ 32.7 µM)
3 | O=C(CNCc1ccccc1Cl)Nc1cc(S(=O)(=O)N2CCOCC2)ccc1Cl | 14.5 µg/mL (≈ 31.6 µM)
4 | CC(C)CC1(C)NC(=O)N(CC(=O)Nc2ccc(F)c(F)c2F)C1=O (stereo unspecified) | 48.6 µg/mL (≈ 136 µM)
5 | CN(C(=O)Nc1ccccc1)C1CCCc2ccccc21 (stereo unspecified) | > 42.1 µg/mL
6 | Cc1c(C)n(CCc2ccccc2)c2ncnc(NCCO)c12 | > 46.6 µg/mL
7 | O=C(NCc1cccnc1)c1ccc([N+](=O)[O-])cc1 | > 38.6 µg/mL
8 | CC(=O)/C=C1/C(=O)Nc2ccccc21 | > 28.1 µg/mL
9 | CCCn1c(Nc2cccc(OC)c2)nc2ccccc21 | 2.1 µg/mL (≈ 7.46 µM)
10 | Oc1ccccc1N1CCN(c2ccc3ccccc3n2)CC1 | 4.2 µg/mL (≈ 13.8 µM)
11 | Cc1ncc([N+](=O)[O-])n1CC(=O)Nc1ccc(Br)cc1 | 9.9 µg/mL (≈ 29.2 µM)
12 | CC1(C)Cc2c(C#N)c(NCCO)nc(-c3ccco3)c2CO1 | 37.4 µg/mL (≈ 119 µM)
13 | CCCN1C(=S)c2ccccc2C1c1ccccc1 (stereo unspecified) | 8.8 µg/mL (≈ 32.9 µM)
14 | COc1ccc2[nH]cc(CCNC(=S)NC3CCCC3)c2c1 | 43.6 µg/mL (≈ 137 µM)
15 | CC(/C=C1\SC(=Nc2cccnc2)NC1=O)=C\c1ccccc1 | 1.7 µg/mL (≈ 5.29 µM)
16 | CCCC(CCC(=O)Nc1cccc([N+](=O)[O-])c1)C(=O)O (stereo unspecified) | > 44.1 µg/mL
17 | COc1ccc(CCN=C(C)c2cc(C)c(C)cc2O)cc1OC | > 49.1 µg/mL
18 | Cc1ccc(C(=O)C[n+]2cccc3cc(C)ccc32)cc1.[Br-] | 43.8 µg/mL
19 | CC(=O)c1ccc(S(=O)(=O)N(C)C(C)CCc2ccco2)cc1 (stereo unspecified) | 31.8 µg/mL (≈ 94.8 µM)
20 | COc1ccc([N+](=O)[O-])cc1N1C(=O)c2cccnc2C1=O | > 44.9 µg/mL
21 | COc1ccc(OCCC(=O)OCC(=O)Nc2cccc(S(=O)(=O)N3CCCCC3)c2)cc1 | 30.5 µg/mL (≈ 64 µM)
22 | COc1cc(OC)cc(N2C(=O)CSCC2=O)c1 | > 40.1 µg/mL
23 | COc1ccccc1CC(=O)Nc1ccc2c(c1)OC1(CCCC1)O2 | 35.7 µg/mL (≈ 105 µM)
24 | CC(=O)Cc1nsc(Nc2ccc(F)cc2)n1 | 33.2 µg/mL (≈ 132 µM)

Row | SMILES | solubility kinetic
25 | COc1ccccc1C(=O)Nc1c(-c2ccccc2)nc2ccccn12 | 10 µg/mL (≈ 29.1 µM)
26 | CN(C)C(Cc1ccccc1)C(=O)c1c[nH]c2ccccc12.Cl (stereo unspecified) | > 49.3 µg/mL
27 | O=[N+]([O-])c1ccc(OCc2cnc(Cl)s2)cc1 | 5.6 µg/mL (≈ 20.7 µM)
28 | Cc1cc(C(=O)COC(=O)c2cccn2C)c(C)n1Cc1ccco1 | 2.8 µg/mL (≈ 8.23 µM)
29 | CCN(CC)c1ccc(NC(=O)c2c(C)noc2C)cc1 | > 43.1 µg/mL
30 | O=C(CCN1C(=O)c2ccccc2S1(=O)=O)Nc1ccc(Cl)cc1 | 0.9 µg/mL (≈ 2.47 µM)
31 | COc1ccc(C(=O)Nc2cccnc2Cl)cc1OC | 42.5 µg/mL (≈ 145 µM)
32 | O=C(NC1CCS(=O)(=O)C1)C1C2CC3CC(C2)CC1C3 (stereo unspecified) | > 44.6 µg/mL
33 | N#Cc1ccccc1OCC(=O)NC1CCCCC1 | > 38.7 µg/mL
34 | CC1(C)C2CCC1(C)C(OC(=O)C[n+]1ccccc1)C2.[Cl-] (stereo unspecified) | 39 µg/mL
35 | N#C/C(=C\c1ccccc1Br)C(=O)NC1CC1 | > 43.7 µg/mL
36 | CCc1c(C)c2cc(Cl)c(O)c(CN3CCCC3)c2oc1=O | 30.5 µg/mL (≈ 94.8 µM)
37 | Cc1ccc(S(=O)(=O)N2CCOCC2)cc1C(=O)c1nccn1C | > 52.4 µg/mL
38 | O=C(C1COc2ccccc2O1)N1CCN(c2ccc(C(F)(F)F)cn2)CC1 (stereo unspecified) | 16.3 µg/mL (≈ 41.4 µM)
39 | Cc1nc(-c2cc(-c3nc(-c4ccc(C(C)(C)C)cc4)no3)no2)cs1 | < 0.2 µg/mL
40 | CCC(OC(=O)c1ccco1)C(=O)NC1CCCC1 (stereo unspecified) | > 39.8 µg/mL
41 | OCC1OC(Oc2c[nH]c3ccccc23)C(O)C(O)C1O (stereo unspecified) | > 44.3 µg/mL
42 | O=C1N(Cc2ccccc2)c2ccccc2C12OCCO2 | 28.9 µg/mL (≈ 103 µM)
43 | CN(C(=O)CN1C(=O)NC2(CCCc3ccccc32)C1=O)C1CCCCC1 (stereo unspecified) | > 55.4 µg/mL
44 | CSc1nc2ccc(Br)cc2[nH]1 | 35.7 µg/mL (≈ 147 µM)
45 | CC(C)c1cc(=O)[nH]c(N2CCN(Cc3ccc4c(c3)OCO4)CC2)n1 | 49.9 µg/mL (≈ 140 µM)
46 | CC(=O)NC(c1ccccc1)c1cc(Cl)c2cccnc2c1O (stereo unspecified) | 0.4 µg/mL (≈ 1.22 µM)
47 | CCN1CCCC1CNC(=O)C(=O)NCc1ccccc1 (stereo unspecified) | > 43.4 µg/mL
48 | Cc1ccccc1NC(=O)C1CC(=O)N(Cc2ccccc2)C1 (stereo unspecified) | > 46.3 µg/mL

Row | SMILES | solubility kinetic
49 | O=C(Nc1cccc(NC(=O)C2C3CC4OC(=O)C2C4C3)c1)c1ccccc1 (stereo unspecified) | 46.7 µg/mL (≈ 124 µM)
50 | CSc1ccccc1NC(=O)CN(C)CC(=O)Nc1ccc(S(=O)(=O)N2CCCC2)cc1 | 1.3 µg/mL (≈ 2.73 µM)
51 | CC(=O)Nc1ccc(C(=O)COC(=O)C2CC2C)c(F)c1 (stereo unspecified) | > 44 µg/mL
52 | COc1ccc(C(=O)Nc2nc3ccc(OC)cc3s2)cc1 | 1.4 µg/mL (≈ 4.45 µM)
53 | CCOC(=O)c1c(NC(=O)Nc2ccc(C)cc2)sc2c1CCN(C)C2 | 1.5 µg/mL (≈ 4.02 µM)
54 | COc1ccc(Cc2cnc(N)s2)cc1 | 31.8 µg/mL (≈ 144 µM)
55 | N#Cc1ccc(NC(=O)C2=COCCO2)cc1 | > 34.5 µg/mL
56 | COc1ccc2c(c1)CCC/C2=N/OC(=O)c1ccccc1OC | 2.6 µg/mL (≈ 7.99 µM)
57 | O=C(CN1C(=O)NC2(CCCCCC2)C1=O)Nc1ccc(Cl)c([N+](=O)[O-])c1 | 5.8 µg/mL (≈ 14.7 µM)
58 | Cc1ccc(C(=O)Nc2cccc(NC(=O)c3ccc(C)o3)n2)o1 | 4 µg/mL (≈ 12.3 µM)
59 | Cc1ccc(CNS(=O)(=O)c2ccc(F)c(F)c2)n1C | > 45 µg/mL
60 | O=C(NCC1CCCCC1)c1cccc(-c2ccc(O)cc2)c1 | < 0.7 µg/mL
61 | Cc1cccc(/C=C/c2onc(C)c2[N+](=O)[O-])n1 | 2.8 µg/mL (≈ 11.4 µM)
62 | CCCCN(CC)C(=O)c1cc2cc3ccc(Cl)cc3nc2o1 | 3.3 µg/mL (≈ 9.98 µM)
63 | N#CC1(NC(=O)CN2CCc3ccccc3C2)CCCC1 | > 42.5 µg/mL
64 | O=C(CC(=O)Nc1ccc(F)cc1)Nc1ccc(F)cc1 | 3.1 µg/mL (≈ 10.7 µM)
65 | Cc1cc(OCC(=O)Nc2ccc3oc(=O)ccc3c2)ccc1Cl | 2.4 µg/mL (≈ 6.98 µM)
66 | CC(c1ccccc1)C(CC(=O)O)C(=O)Nc1ccc(Cl)c(Cl)c1 (stereo unspecified) | 46 µg/mL (≈ 126 µM)
67 | COc1cccc(-c2onc3ccc(C(=O)/C=C/N(C)C)cc23)c1 | 14.6 µg/mL (≈ 45.3 µM)
68 | COc1ccc(CNc2nc(NC(C)=O)nn2-c2ccccc2)cc1 | > 50.6 µg/mL
69 | O=C(c1cc2cc(F)ccc2[nH]1)N1CCc2ccccc2C1 | 0.9 µg/mL (≈ 3.06 µM)
70 | O=C(NCCN1CCCCC1)Nc1ccc([N+](=O)[O-])cc1 | > 43.9 µg/mL
71 | CCOc1ccccc1N=Cc1c(O)n(C)c(=O)n(C)c1=O | 1.1 µg/mL (≈ 3.63 µM)
72 | COc1cc(C(=O)NCC(c2cccs2)N2CCOCC2)cc(Br)c1OCc1ccccc1 (stereo unspecified) | 6.3 µg/mL (≈ 11.9 µM)

Row | SMILES | solubility kinetic
73 | CC(C)NC(=O)CCc1nc2cccnc2n1-c1ccccc1 | 43.3 µg/mL (≈ 140 µM)
74 | COc1ccc(C(=O)Nc2cc(-c3ccc(C)cc3)no2)cc1 | < 0.3 µg/mL
75 | CC(Sc1nncs1)C(=O)Nc1ccc(S(=O)(=O)Nc2ncccn2)cc1 (stereo unspecified) | > 63.4 µg/mL
76 | COc1cc([N+](=O)[O-])ccc1NC(=O)C1C2C=CC(C2)C1C(=O)O (stereo unspecified) | > 49.8 µg/mL
77 | O=C(Cn1ccccc1=S)c1ccc(Cl)c(Cl)c1 | 6.3 µg/mL (≈ 21.1 µM)
78 | CNC(=S)c1cc(C(C)(C)C)c(O)c(C(C)(C)C)c1 | 13.4 µg/mL (≈ 48 µM)
79 | CC1CCC(NC(=O)C2CC(=O)N(c3ccc(Cl)cc3)C2)CC1 (stereo unspecified) | 2.3 µg/mL (≈ 6.87 µM)
80 | O=C(NCCc1c[nH]c2ccccc12)c1ccc2c(c1)OCO2 | 44.5 µg/mL (≈ 144 µM)
81 | Cc1ccc(C2CCN(C(=O)Nc3ccc(F)cc3)C2)cc1 (stereo unspecified) | 1.7 µg/mL (≈ 5.7 µM)
82 | O=[N+]([O-])c1cc(C(F)(F)F)cc([N+](=O)[O-])c1N1CCCNCC1 | 37.9 µg/mL (≈ 113 µM)
83 | O=C(O)c1cn2c3c(ccc(Cl)c3c1=O)OCC2 | > 39.8 µg/mL
84 | O=C(O)CCCC(=O)N1CCN(c2ncccn2)CC1 | > 41.7 µg/mL
85 | CCOc1ccc(N2C(=O)C(Cl)=C(N3CCOCC3)C2=O)cc1 | > 50.5 µg/mL
86 | O=C(CN1C(=O)NC2(CCc3ccccc32)C1=O)NCc1cccc(C(F)(F)F)c1 (stereo unspecified) | 55.2 µg/mL (≈ 132 µM)
87 | Cc1cc2c(sc3ccccc32)c(C)n1.Cl | 3.7 µg/mL
88 | Cc1ccc2nc(C3CCCCC3)[nH]c2c1 | > 32.1 µg/mL
89 | COc1ccc(C(C)=O)cc1COc1ccccc1[N+](=O)[O-] | < 0.6 µg/mL
90 | COc1ccc(C(=O)O/N=C(\N)c2cccc(C)c2)cc1OC | 14.7 µg/mL (≈ 46.8 µM)
91 | COc1ccc(S(=O)(=O)N2CCOCC2)cc1NC(=O)CC(C)c1ccccc1 (stereo unspecified) | 9.9 µg/mL (≈ 23.7 µM)
92 | N#Cc1cccc(NC(=O)COC(=O)C2CCC2)c1 | > 38.7 µg/mL
93 | OCCCc1cn(Cc2ccccc2)c2ccccc12 | 22.9 µg/mL (≈ 86.3 µM)
94 | O=C1CN(C(=O)COC(=O)Cc2ccccc2)c2ccccc2N1 | > 48.7 µg/mL
95 | CCN(C(=O)CSc1nc2ccc(Cl)cc2[nH]1)C1CCS(=O)(=O)C1 (stereo unspecified) | > 58.2 µg/mL
96 | C/C=C/C(=O)OCC(=O)Nc1cccc(Br)c1 | 29 µg/mL (≈ 97.3 µM)

Row | SMILES | solubility kinetic
97 | O=C(NCCS(=O)(=O)NCC1CCCO1)c1ccccc1 (stereo unspecified) | > 46.9 µg/mL
98 | CN(Cc1ccccc1)C(=O)c1ccc(S(=O)(=O)N(C)c2ccccc2)cc1 | 26.1 µg/mL (≈ 66.2 µM)
99 | O=C(Nc1ccc(Br)cn1)c1ccc2ccccc2c1 | < 0.4 µg/mL
100 | COc1ccc(C)cc1NC(=S)NC12CN3CN(CN(C3)C1)C2 | > 50 µg/mL
101 | CCOC(=O)NC(=O)CN1C(=O)NC2(CCc3ccccc32)C1=O (stereo unspecified) | > 49.7 µg/mL
102 | Cc1ccc(N2C(=O)CC(NCC3CCCO3)C2=O)cc1 (stereo unspecified) | > 43.3 µg/mL
103 | O=C(COC(=O)c1ccc[nH]c1=O)NC1CCCCC1 | 37 µg/mL (≈ 133 µM)
104 | C=CCNC(=O)C(=O)NCCCN1CCOCC1 | > 38.3 µg/mL
105 | CN(C(=O)CSc1ncnc2sc3c(c12)CCCC3)C1CCS(=O)(=O)C1 (stereo unspecified) | > 61.7 µg/mL
106 | COc1cccc(NC(=O)CCN2CCOCC2)c1.Cl | > 45.1 µg/mL
107 | Cc1ccccc1C(=O)Nc1cccc(C(=O)Nc2ccccc2C(=O)O)c1 | > 56.2 µg/mL
108 | Cc1ccc(S(=O)(=O)N2CCN(CC(=O)N3CCOCC3)CC2)cc1 | 54.7 µg/mL (≈ 149 µM)
109 | CCOc1ccc(NC(=O)C(CC(=O)O)Cc2ccc(C)cc2)cc1 (stereo unspecified) | > 51.2 µg/mL
110 | CN(C(=O)CN1C(=O)c2ccccc2S1(=O)=O)C1CCCCC1 | > 50.5 µg/mL
111 | CC1(CCc2ccccc2)NC(=O)N(CC(=O)Nc2ccc(OC(F)F)cc2)C1=O (stereo unspecified) | 11.4 µg/mL (≈ 27.3 µM)
112 | O=C(COC(=O)c1cc2ccccc2o1)NCc1ccco1 | 17 µg/mL (≈ 56.8 µM)
113 | CC(C)Oc1c(N2CCOCC2)c(=O)c1=O | > 33.8 µg/mL
114 | CCN(CC(=O)Nc1ccccc1OC)Cc1csc(CC(=O)Nc2ccc(C)cc2)n1 | 19 µg/mL (≈ 42 µM)
115 | COc1ccc2oc(C(=O)OCC(=O)NC3CC3)c(C)c2c1 | 10.3 µg/mL (≈ 34 µM)
116 | CCCCCNC(=O)C1c2ccccc2Oc2ccccc21 | < 0.6 µg/mL
